The values below come from PubChem BioAssay AID248 (DTP/NCI, 2004).

Each structure is given as a SMILES string. Where “and” joins values, the source holds several entries; their conditions need not be identical. Identical values can stand only once. Inconclusive results and toxic doses are left out.

This assay has as its system L1210 leukemia ip in BDF1 mice, survival T/C. Kind of assay: NCI In Vivo Anticancer Drug Screen. Data for tumor model L1210 Leukemia (intraperitoneal) in B6D2F1 (BDF1) mice. The conditions noted are these: endpoint: mean survival time, higher = longer survival. In a few lines: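 Transplanted-tumor mice were given test agent; controls received vehicle only. Survival readings from the two groups were divided (treated over control).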

Setting [1] is: dose: 100.0 mg/kg/injection, schedule: Q01DX009 (ip), vehicle: saline with Tween-80.
Setting [2] is: dose: 100.0 mg/kg/injection, schedule: Q04DX003 (ip), vehicle: saline with Tween-80.
Where [3] appears, read: dose: 200.0 mg/kg/injection, schedule: Q01DX009 (ip), vehicle: saline with Tween-80.
[4] abbreviates: dose: 200.0 mg/kg/injection, schedule: Q04DX003 (ip), vehicle: saline with Tween-80.
The mark [5] stands for this setting: dose: 400.0 mg/kg/injection, schedule: Q04DX003 (ip), vehicle: saline with Tween-80.
Setting [6] is: dose: 100.0 mg/kg/injection, schedule: Q01DX009 (ip), vehicle: Klucel (hydroxypropylcellulose) (HPC).
Setting [7] is: dose: 100.0 mg/kg/injection, schedule: Q01DX001 (ip), vehicle: carboxymethylcellulose (CMC).
[8] abbreviates: dose: 200.0 mg/kg/injection, schedule: Q01DX001 (ip), vehicle: carboxymethylcellulose (CMC).

In the case of `COc1ccc(C23OC2Oc2cc(OC4CCCCO4)ccc2C3=O)cc1` (stereo unspecified), the T/C is 103 % of control (dose: 50.0 mg/kg/injection, schedule: Q01DX001 (sc), vehicle: steriod suspending solution); 108 % of control (dose: 100.0 mg/kg/injection, schedule: Q01DX001 (sc), vehicle: steriod suspending solution); 106 % of control (dose: 200.0 mg/kg/injection, schedule: Q01DX001 (sc), vehicle: steriod suspending solution); 103 % of control (dose: 400.0 mg/kg/injection, schedule: Q01DX001 (sc), vehicle: steriod suspending solution).
Consider `CCN(C(=O)CC(C)=O)c1ccccc1`, for which the T/C reads like this: under setting [1], 91 % of control; under setting [2], 98 % of control; under setting [3], 93 % of control; under setting [4], 98 % of control; (dose: 400.0 mg/kg/injection, schedule: Q01DX009 (ip), vehicle: saline with Tween-80) 94 % of control; under setting [5], 98 % of control.
On to `CCOc1cccc(Cc2c[nH]c(=S)[nH]c2=O)c1`, for which the T/C is 100 % of control (dose: 100.0 mg/kg/injection, schedule: Q01DX001 (ip), vehicle: Klucel (hydroxypropylcellulose) (HPC)); 105 % of control (dose: 200.0 mg/kg/injection, schedule: Q01DX001 (ip), vehicle: Klucel (hydroxypropylcellulose) (HPC)); 94 % of control (dose: 400.0 mg/kg/injection, schedule: Q01DX001 (ip), vehicle: Klucel (hydroxypropylcellulose) (HPC)).
Turning to `O=C(Nc1ccc2c(c1)OCO2)O/N=C\c1cccnc1`, the T/C (dose: 12.5 mg/kg/injection, schedule: Q01DX009 (ip), vehicle: saline with Tween-80) is 97 % of control; the T/C (dose: 25.0 mg/kg/injection, schedule: Q01DX009 (ip), vehicle: saline with Tween-80) was 105 % of control; the T/C (dose: 50.0 mg/kg/injection, schedule: Q01DX009 (ip), vehicle: saline with Tween-80) was 100 % of control; the T/C under setting [1] is 86 % of control; the T/C under setting [2] was 100 % of control; the T/C under setting [3] is 91 % of control. Besides, the T/C runs as follows: under setting [4], 113 % of control; under setting [5], 111 % of control.
With `CC(C)(C)CC(C)(C)c1ccc(OCCOC(=O)c2ccccc2C(=O)O)cc1`, the T/C is, setting by setting: (dose: 25.0 mg/kg/injection, schedule: Q01DX009 (ip), vehicle: Klucel (hydroxypropylcellulose) (HPC)) 97 % of control; (dose: 50.0 mg/kg/injection, schedule: Q01DX009 (ip), vehicle: Klucel (hydroxypropylcellulose) (HPC)) 105 % of control; under setting [6], 94 % of control.
`CCC(C)(C)c1cccc(C(=O)O)c1O`: the T/C is 104 % of control under setting [7] and 93 % of control under setting [8].
With `O=C(COc1ccc(Cl)cc1Cl)OC(=O)COc1ccc(Cl)cc1Cl`, the T/C (dose: 12.5 mg/kg/injection, schedule: Q01DX009 (ip), vehicle: carboxymethylcellulose (CMC)) was 100 % of control and 106 % of control; the T/C (dose: 25.0 mg/kg/injection, schedule: Q01DX009 (ip), vehicle: carboxymethylcellulose (CMC)) was 102 % of control and 103 % of control; the T/C (dose: 50.0 mg/kg/injection, schedule: Q01DX001 (ip), vehicle: carboxymethylcellulose (CMC)) is 92 % of control; the T/C (dose: 50.0 mg/kg/injection, schedule: Q04DX003 (ip), vehicle: carboxymethylcellulose (CMC)) is 92 % of control; the T/C under setting [7] was 97 % of control; the T/C (dose: 100.0 mg/kg/injection, schedule: Q01DX009 (ip), vehicle: carboxymethylcellulose (CMC)) is 94 % of control. The T/C was 95 % of control (dose: 100.0 mg/kg/injection, schedule: Q04DX002 (ip), vehicle: Klucel (hydroxypropylcellulose) (HPC)); 97 % of control and 100 % of control (dose: 100.0 mg/kg/injection, schedule: Q04DX002 (ip), vehicle: carboxymethylcellulose (CMC)); 94 % of control (dose: 100.0 mg/kg/injection, schedule: Q04DX003 (ip), vehicle: carboxymethylcellulose (CMC)); 89 % of control under setting [8]; 95 % of control (dose: 200.0 mg/kg/injection, schedule: Q04DX002 (ip), vehicle: Klucel (hydroxypropylcellulose) (HPC)); 97 % of control and 98 % of control (dose: 200.0 mg/kg/injection, schedule: Q04DX002 (ip), vehicle: carboxymethylcellulose (CMC)). Moreover, for the setting “dose: 400.0 mg/kg/injection, schedule: Q04DX002 (ip), vehicle: Klucel (hydroxypropylcellulose) (HPC)”, the T/C was 98 % of control.
With `O=C(Nc1ccc(C2=NCCN2)cc1)c1cc(Cl)cc(C(=O)Nc2ccc(C3=NCCN3)cc2)c1`, the T/C runs as follows: (dose: 62.5 mg/kg/injection, schedule: Q01DX009 (ip), vehicle: saline) 96 % of control and 104 % of control; (dose: 120.0 mg/kg/injection, schedule: Q01DX Z (oral), vehicle: carboxymethylcellulose (CMC)) 102 % of control; (dose: 125.0 mg/kg/injection, schedule: Q01DX009 (ip), vehicle: saline) 99 % of control and 106 % of control; (dose: 140.0 mg/kg/injection, schedule: Q01DX010 (ip), vehicle: saline) 105 % of control; (dose: 140.0 mg/kg/injection, schedule: Q01DX Z (ip), vehicle: methylcellulose (MC)) 107 % of control and 110 % of control; (dose: 210.0 mg/kg/injection, schedule: Q01DX010 (ip), vehicle: saline) 109 % of control. The T/C runs as follows: (dose: 210.0 mg/kg/injection, schedule: Q01DX Z (ip), vehicle: methylcellulose (MC)) 115 % of control; (dose: 240.0 mg/kg/injection, schedule: Q01DX Z (oral), vehicle: carboxymethylcellulose (CMC)) 104 % of control; (dose: 250.0 mg/kg/injection, schedule: Q01DX009 (ip), vehicle: saline) 96 % of control and 104 % of control; (dose: 315.0 mg/kg/injection, schedule: Q01DX010 (ip), vehicle: saline) 98 % of control and 105 % of control; (dose: 315.0 mg/kg/injection, schedule: Q01DX Z (ip), vehicle: methylcellulose (MC)) 179 % of control; (dose: 473.0 mg/kg/injection, schedule: Q01DX010 (ip), vehicle: saline) 107 % of control and 110 % of control. Moreover, the T/C is, setting by setting: (dose: 473.0 mg/kg/injection, schedule: Q01DX Z (ip), vehicle: methylcellulose (MC)) 151 % of control; (dose: 480.0 mg/kg/injection, schedule: Q01DX Z (oral), vehicle: carboxymethylcellulose (CMC)) 107 % of control; (dose: 500.0 mg/kg/injection, schedule: Q01DX009 (ip), vehicle: saline) 103 % of control and 112 % of control; (dose: 960.0 mg/kg/injection, schedule: Q01DX Z (oral), vehicle: carboxymethylcellulose (CMC)) 100 % of control.
With `CCN=C(c1ccc(NC(=O)c2ccc(C(=O)Nc3ccc(C(=NCC)N(CC)C(=O)NC)cc3)cc2)cc1)N(CC)C(=O)NC`, the T/C is, setting by setting: (dose: 6.25 mg/kg/injection, schedule: Q01DX015 (ip), vehicle: methylcellulose (MC)) 93 % of control; (dose: 12.5 mg/kg/injection, schedule: Q01DX015 (ip), vehicle: methylcellulose (MC)) 100 % of control.
With `CC(O)CNC(=O)C(C)(C)O` (stereo unspecified), the T/C is, setting by setting: (dose: 100.0 mg/kg/injection, schedule: Q01DX009 (ip), vehicle: saline) 96 % of control; (dose: 200.0 mg/kg/injection, schedule: Q01DX009 (ip), vehicle: saline) 96 % of control; (dose: 400.0 mg/kg/injection, schedule: Q01DX009 (ip), vehicle: saline) 94 % of control.
In the case of `CC(C)C1CC=CCC12C(=O)NC(=O)NC2=O` (stereo unspecified), the T/C was 104 % of control (dose: 75.0 mg/kg/injection, schedule: Q01DX001 (ip), vehicle: other); 97 % of control (dose: 150.0 mg/kg/injection, schedule: Q01DX001 (ip), vehicle: other); 93 % of control (dose: 300.0 mg/kg/injection, schedule: Q01DX001 (ip), vehicle: other).
As to `CN(C(=O)/C=C/c1ccccc1)C1CCCCC1`, the T/C reads like this: under setting [6], 101 % of control; (dose: 200.0 mg/kg/injection, schedule: Q01DX009 (ip), vehicle: Klucel (hydroxypropylcellulose) (HPC)) 110 % of control; (dose: 400.0 mg/kg/injection, schedule: Q01DX009 (ip), vehicle: Klucel (hydroxypropylcellulose) (HPC)) 111 % of control.
As for `COCC(=O)Nc1ccc(Cl)c(Cl)c1`, the T/C under setting [7] was 100 % of control; the T/C under setting [8] is 92 % of control; the T/C (dose: 400.0 mg/kg/injection, schedule: Q01DX001 (ip), vehicle: carboxymethylcellulose (CMC)) was 97 % of control.
Regarding `O=C(CN1C(=O)c2ccccc2C1=O)NCC(=O)Nc1ccccc1`, the T/C is 93 % of control (dose: 50.0 mg/kg/injection, schedule: Q01DX001 (ip), vehicle: saline); 98 % of control (dose: 100.0 mg/kg/injection, schedule: Q01DX001 (ip), vehicle: saline); 104 % of control (dose: 200.0 mg/kg/injection, schedule: Q01DX001 (ip), vehicle: saline); 93 % of control (dose: 400.0 mg/kg/injection, schedule: Q01DX001 (ip), vehicle: saline).
Consider `C=CCNC(=O)C1C2C=CC(C2)C1C(=O)O` (stereo unspecified), for which the T/C by setting is: under setting [2], 98 % of control; under setting [4], 104 % of control; under setting [5], 98 % of control.
